# Laboratory results from patent US20240246905A1 (University of Leicester, priority 2021, published 2024).
# How the values were obtained:
# HEK293 cells = assay: Cytotoxicity assay, resazurin (CO-ADD); details: set concentration of 32 μg/mL
# Experimental: The cytotoxicity studies were performed by CO-ADD (The Community for Open Antimicrobial Drug Discovery), funded by the Wellcome trust (UK) and the University of Queensland, Australia.^(28) In this study, the compounds were screened against a human embryonic kidney cell line, HEK293, at a set concentration of 32 μg/mL.
# DMEM supplemented with 10% FBS was used as growth media and the cells were incubated together with the compounds for 20 hours at 37° C. in 5% CO2.
# Cytotoxicity (or cell viability) was measured by fluorescence, excitation: 560/10 nm, emission: 590/10 nm (F560/590), after addition of 5 μL of 25 μg/mL Resazurin (2.3 μg/mL final concentration) and after incubation for further 3 h at 37° C. in 5% CO2. The fluorescence intensity was measured using a Tecan M1000 Pro monochromator plate reader, using automatic gain calculation CC50 (concentration at 50% cytotoxicity) were calculated by curve fitting the inhibition values vs. log(concentration) using sigmoidal dose-response function, with variable fitting values for bottom, top and slope. The curve fitting was implemented using Pipeline Pilot's dose-response component.
# [1] = tested on: Staphylococcus aureus 15981; assay: Disc diffusion (Kirby-Bauer), zone of inhibition; type: cell-based; details: Staphylococcus aureus 15981; 500 μg/mL; '/' = no zone; read-out: Zone of inhibition
# Experimental: (§1) E. coli DH5α, P. aeruginosa PA01 and the 53 S. aureus strains were recovered from frozen (−80° C.) glycerol (15% v/v) stocks on Lysogeny agar (LA)—Gram negative and trypticase soy agar (TSA)—plates at 37° C. for 24 hours. Single colonies were placed in either 3 mL Lysogeny broth (LB)—Gram negative or trypticase soy broth (TSB)—Gram positive and incubated at 37° C., 250 rpm for 18 hours.
# (§2) The antibiotic activity was determined using a Kirby-Bauer method according to Clinical Standard Laboratory Institute (CSLI) Guidelines (2017). Briefly, 180 μL of a 1 in 200 dilution (in LB or TSB) of overnight cultures of selected Gram negative and Gram positive bacteria were applied to an agar plate containing the solid growth medium, Mueller-Hinton agar (MHA). Sterile discs, inoculated with 50 μL of antibiotic, were first added to the agar plate before the plates were incubated for 24 hours at 37° C. Following incubation, the zone of inhibition (if it existed) was recorded.
# Escherichia coli DH5α = assay: Disc diffusion (Kirby-Bauer), zone of inhibition; type: cell-based; details: Escherichia coli DH5α; 500 μg/mL; '/' = no zone; read-out: Zone of inhibition
# Experimental: as §1, §2
# MRSA 252 [2] = assay: MIC, broth micro-dilution; type: cell-based, Staphylococcus aureus; details: Staphylococcus aureus, read-out: MIC
# Experimental: as §1
# (§3) Antibiotic MIC's were determined by a broth micro-dilution method according to Clinical Standard Laboratory Institute (CSLI) Guidelines (2017). Briefly, 96-well microplates, each containing 195 μL of the 1:2 dilution antibiotic in TSB, were inoculated with 5 μL of overnight cultured bacteria, diluted to give a starting bacterial concentration of 5×10^5 CFU/mL. The optical density of each well inoculated was recorded every 12 minutes over an 18 hour period at 37° C. The data from this was plotted in OriginPro8 (OriginLab) and sigmoidal curves fitted using the dose response function. Fitted values for each curve were used to calculate the MIC.
# MSSA 476 [3] = assay: MIC, broth micro-dilution; type: cell-based, Staphylococcus aureus; details: Staphylococcus aureus, MSSA, read-out: MIC
# Experimental: as §1, §3
# [4] = tested on: various Staphylococcus aureus strains; assay: Disc diffusion, Staphylococcus aureus strain study; type: cell-based; details: Staphylococcus aureus, 500 μg/mL
# Excerpt: At this point in the study it was decided to perform a disc diffusion assay study on 50 S. aureus strains. […] Moreover, by employing a range of mutant strains of S. aureus with specific gene-deletions, it was believed that if particular strains were resistant to the lead compounds, it could provide insights on the likely protein target of the lead antibiotics. However, all six of the compounds utilized in this study were able to inhibit growth of all 50 strains of S. aureus assayed at the chosen concentration of 500 μg/mL concentration (Table 5).
# as §1, §2
# MRSA 252 [5] = assay: Disc diffusion (Kirby-Bauer), zone of inhibition; type: cell-based, Staphylococcus aureus; details: Staphylococcus aureus, 500 μg/mL, '/' = no zone, read-out: Zone of inhibition
# Experimental: as §1, §2
# MSSA 476 [6] = assay: Disc diffusion (Kirby-Bauer), zone of inhibition; type: cell-based, Staphylococcus aureus; details: Staphylococcus aureus, 500 μg/mL, '/' = no zone, read-out: Zone of inhibition
# Experimental: as §1, §2
smiles,measurement,setting,value
"[C-]#[N+]C=Cc1ccc(O)cc1 [Compound 2, 4-(2-Isocyanovinyl)phenol]",toxicity towards the HEK293 cell line (in words),HEK293 cells,no toxicity
same,zone of inhibition at 500 µg/mL,[1],22 mm
same,zone of inhibition at 500 µg/mL,Escherichia coli DH5α,20 mm
same,MIC,MRSA 252 [2],90 µg/mL
same,MIC,MSSA 476 [3],100 µg/mL
same,zone of inhibition at 500 µg/mL,"[4]; MRSA, strain MRSA 252",16 mm
same,zone of inhibition at 500 µg/mL,[4]; strain ASARM 61,15 mm
same,zone of inhibition at 500 µg/mL,[4]; strain ASARM 70,14 mm
same,zone of inhibition at 500 µg/mL,[4]; strain ASARM 71,14 mm
same,zone of inhibition at 500 µg/mL,[4]; strain ASARM 72,12 mm
same,zone of inhibition at 500 µg/mL,[4]; strain ASARM 73,16 mm
same,zone of inhibition at 500 µg/mL,[4]; strain ASARM 75,15 mm
same,zone of inhibition at 500 µg/mL,[4]; strain ASARM 76,14 mm
same,zone of inhibition at 500 µg/mL,[4]; strain ASARM 77,14 mm
same,zone of inhibition at 500 µg/mL,[4]; strain ASARM 79,13 mm
same,zone of inhibition at 500 µg/mL,[4]; strain ASARM 80,13 mm
same,zone of inhibition at 500 µg/mL,[4]; strain EOE 3,12 mm
same,zone of inhibition at 500 µg/mL,[4]; strain EOE 23,16 mm
same,zone of inhibition at 500 µg/mL,[4]; strain EOE 30,18 mm
same,zone of inhibition at 500 µg/mL,[4]; strain EOE 35,14 mm
same,zone of inhibition at 500 µg/mL,[4]; strain EOE 41,17 mm
same,zone of inhibition at 500 µg/mL,[4]; strain EOE 42,16 mm
same,zone of inhibition at 500 µg/mL,[4]; strain EOE 45,15 mm
same,zone of inhibition at 500 µg/mL,[4]; strain EOE 52,14 mm
same,zone of inhibition at 500 µg/mL,[4]; strain EOE 54,16 mm
same,zone of inhibition at 500 µg/mL,[4]; strain EOE 57,18 mm
same,zone of inhibition at 500 µg/mL,[4]; strain S139_7_7,14 mm
same,zone of inhibition at 500 µg/mL,[4]; strain S197_1_1,25 mm
same,zone of inhibition at 500 µg/mL,[4]; strain S197_1_8,16 mm
same,zone of inhibition at 500 µg/mL,[4]; strain S197_1_9,16 mm
same,zone of inhibition at 500 µg/mL,[4]; strain S197_1_10,15 mm
same,zone of inhibition at 500 µg/mL,[4]; strain S295_1_1,20 mm
same,zone of inhibition at 500 µg/mL,[4]; strain S295_1_2,14 mm
same,zone of inhibition at 500 µg/mL,[4]; strain S295_1_3,18 mm
same,zone of inhibition at 500 µg/mL,[4]; strain S364_5_11,26 mm
same,zone of inhibition at 500 µg/mL,[4]; strain S364_5_12,22 mm
same,zone of inhibition at 500 µg/mL,[4]; strain Sa_TPS 3026,14 mm
same,zone of inhibition at 500 µg/mL,[4]; strain Sa_TPS 3072,16 mm
same,zone of inhibition at 500 µg/mL,[4]; strain Sa_TPS 3092,20 mm
same,zone of inhibition at 500 µg/mL,[4]; strain Sa_TPS 3097,15 mm
same,zone of inhibition at 500 µg/mL,[4]; strain Sa_TPS 3103,16 mm
same,zone of inhibition at 500 µg/mL,[4]; strain Sa_TPS 3104,15 mm
same,zone of inhibition at 500 µg/mL,[4]; strain Sa_TPS 3106,15 mm
same,zone of inhibition at 500 µg/mL,[4]; strain Sa_TPS 3118,18 mm
same,zone of inhibition at 500 µg/mL,[4]; strain Sa_TPS 3133,14 mm
same,zone of inhibition at 500 µg/mL,[4]; strain Sa_TPS 3134,14 mm
same,zone of inhibition at 500 µg/mL,[4]; strain USFL 008,14 mm
same,zone of inhibition at 500 µg/mL,[4]; strain USFL 009,14 mm
same,zone of inhibition at 500 µg/mL,[4]; strain USFL 012,16 mm
same,zone of inhibition at 500 µg/mL,[4]; strain USFL 016,14 mm
same,zone of inhibition at 500 µg/mL,[4]; strain USFL 018,15 mm
same,zone of inhibition at 500 µg/mL,[4]; strain USFL 020,14 mm
same,zone of inhibition at 500 µg/mL,[4]; strain USFL 021,16 mm
same,zone of inhibition at 500 µg/mL,[4]; strain USFL 028,15 mm
same,zone of inhibition at 500 µg/mL,[4]; strain USFL 035,15 mm
same,zone of inhibition at 500 µg/mL,[4]; strain USFL 054,14 mm
same,zone of inhibition at 500 µg/mL,MRSA 252 [5],22 mm
same,zone of inhibition at 500 µg/mL,MSSA 476 [6],20 mm
